Ends that are not written are not given here.
Assays:
recombinant CRHR2 = assay: cAMP production by 293T cells transfected with recombinant CRHR2 (two isoforms); assay type: cell-based; settings: for cAMP production mediated by recombinant CRHR2: 293T cells transiently transfected, two isoforms of CRHR2 (FIGS. 3c-3d)
Experimental: (§1) FIG. 3. […] Hormonal stimulation of cAMP production by FIG. 3a. CRHR2-containing rat cardiac A7r5 cells, FIG. 3b. CRHR1-containing human retinoblastoma Y79 cells, FIG. 3c. recombinant CRHR2, FIG. 3d. recombinant CRHR2 and, FIG. 3e. recombinant CRHR1. Cells incubated with the test peptide or vehicle were harvested at 16 h after treatment and heated to 95° C. for 5 mm to inactivate phosphodiesterase activity before cAMP measurement. FIG. 3f. […] Data are the mean SEM (N=4). SCP1-0.1, stresscopin 1 (0.1 nM); SCP1, stresscopin 1 (1 nM); SCP1(2-43), truncated stresscopin 1 with the first amino acid deleted; SCP1 (3-43), truncated stresscopin 1 with 2-amino-acid deletion; SCP1 (4-43), truncated stresscopin 1 with 3-amino-acid deletion; SCP1 (5-43), truncated stresscopin 1 with 4-amino-acid deletion; SCP1 (6-43), truncated stresscopin 1 with 5-amino-acid deletion; SCP1-NA-0.1, full-length stresscopin 1 devoid of amidation at the C-terminus (0.1 nM); SCP1-NA, full-length stresscopin 1 devoid of amidation at the C-terminus (1 nM); UCN, urocortin. FIGS. 3g and 3h. […] Data are mean SEM (N=3).
(§2) The receptor cDNA fragments were subcloned into the pcDNA3.1/Zeo vector with a prolactin signal peptide for secretion and triple FLAG/M1 epitope cassette upstream of the multiple cloning site. […] For the estimation of adenylate cyclase activation by stresscopin and related hormones, transfected cells were seeded at a concentration of 100,000 cell/well in 48 well culture plates in DMEM/F12 medium containing 0.1% BSA and 2.5mM IBMX for 16 h. Contents of cAMP in whole cell lysate were determined using a cAMP radioimmunoassay.

[1] = tested on: heat-induced paw edema in anaesthetized rats; assay: Heat-induced paw edema formation in anaesthetized rats; assay type: in vivo, rat; settings: i.p., FIG. 4c
Experimental: (§3) FIG. 4. […] ACTH contents in culture media and serum were determined using a radioimmunoassay. For in vivo studies, male rats were injected i.p. with test peptides (2 nmoles/kg B.W.) and sacrificed 30 mm later. Data are mean SEM (N=4). FIG. 4c. Anti-edema response regulated by stresscopins. Stresscopin 1 (20 nmoles/kg), stresscopin 2 (100 nmoles/kg), and related hormones (20 nmoles/kg) suppress heat-induced paw edema formation in anaesthetized rats (N=6). FIG. 4d. Cumulative food intake in mice treated with stresscopin 1 (left panel, N=6) and stresscopin 2 (right panel, N=4) peptides and other hormones at 2, 4, and 8 h after treatment. FIG. 4e. Reduction of gastric emptying by stresscopin 1 (blank bars, 8 nmoles/kg; hatched bars, 80 nmoles/kg), stresscopin 2 (blank bars, 80 nmoles/kg; hatched bars, 200 nmoles/kg), and related hormones (blank bars, 8 nmoles/kg; hatched bars, 80 nmoles/kg) at 2 h after hormone treatment (N=6). The rates of gastric emptying were calculated by the formula (wet weight of stomach at 2 h after treatment/wet weight of stomach in fed animals sacrificed at 0 h). SCP1 is stresscopin 1; SCP2 is stresscopin 2; UCN is urocortin; SCP1 (11-43) is truncated stresscopin 1 with the first 10 amino acids deleted.
Effects on heat-induced paw edema formation in anaesthetized rats. The anti-inflammatory effect of stresscopin and related peptides were assayed using an established model (Turnbull et al. (1996) Euro. J. Pharmacol. 303:213-216). Briefly, 5-week-old male Sprague-Dawley rats were injected with […] of the testing peptide and anaesthetized with ketamine (100 mg/Kg). Thirty min. later, paw edema was induced following a one minute exposure to hot water at 58° C. The animals were sacrificed 30 min later. Both paws were removed at the ankle joint and weighed. The degree of edema was estimated as the differences in weight gain between the heated and unheated paw divided by the weight of the unheated paw.

[2] = tested on: gastric emptying in food-restricted mice; assay: Gastric emptying in food-restricted mice; assay type: in vivo; settings: i.p., 2 h after hormone treatment, FIG. 4e
Experimental: as §3
Effects on gastric emptying in food-restricted mice. To study the effects on gastric emptying, mice were deprived of food for 16 h with free access to water. The fasted mice were then given free access to preweighed pellets for 90 min. and were injected i.p. with different hormones or saline. The mice were deprived of food again after i.p. injection and sacrificed by cervical dislocation at 2 h. after injection. The stomach was excised at point of the pylorus and cardia before determination of its wet weight. Gastric emptying was calculated by comparison with stomach weight of control mice sacrificed at 0 h. following injection. See, Asakawa, A. et al. (1999) Gastroenterology 116:1287-1292.

CRH R2 = assay: Receptor binding assay, displacement of 125I-urocortin; settings: 293T cells transfected with CRHR2 isoforms (FIGS. 3g, 3h)
Experimental: as §1
Receptor Binding assay. […] After 60 min incubation at 37° C., the cell-associated ligand was estimated following centrifugation and repeated washing. Radioactivity of samples was determined in a GENESYS-counter (Laboratory Technologies, Inc., Maple Park, Ill.).

fasting mice = assay: Food intake and body weight in food-restricted mice; assay type: in vivo; settings: for Average body weight change/mouse / Average food intake/mouse: fasted animals, 2 h after treatment, N = 5; for cumulative food intake: i.p., fasting mice, 2, 4 and 8 h after treatment, FIG. 4d
Experimental: as §3
Food intake and body weight in food-restricted mice. Six week-old male mice (20-25 g b.w.) of the inbreed Balb/C strain were housed individually in a regulated environment with 12L/12D light cycle. Before feeding tests, mice were deprived of food for 16 h with free access to water and injected with testing reagents i.p. at 10 AM the following day. Food intake was measured by placing preweighed pellets in the cage and weighing the uneaten pellets at 2, 4 and 8 h after injection. Body weight was also monitored at 0, 2, 4, and 8 h.

[3] = target: T1, CRHR1-containing human retinoblastoma Y79 cells (Homo sapiens, UniProt P34998); assay: cAMP production in CRHR1-containing human retinoblastoma Y79 cells; assay type: cell-based; settings: harvested 16 h after treatment (FIG. 3b)
T1 construct: cells constitutively expressing CRH receptors; host or cells: Y79 (human retinoblastoma)
T1 sequence (P34998 24-415): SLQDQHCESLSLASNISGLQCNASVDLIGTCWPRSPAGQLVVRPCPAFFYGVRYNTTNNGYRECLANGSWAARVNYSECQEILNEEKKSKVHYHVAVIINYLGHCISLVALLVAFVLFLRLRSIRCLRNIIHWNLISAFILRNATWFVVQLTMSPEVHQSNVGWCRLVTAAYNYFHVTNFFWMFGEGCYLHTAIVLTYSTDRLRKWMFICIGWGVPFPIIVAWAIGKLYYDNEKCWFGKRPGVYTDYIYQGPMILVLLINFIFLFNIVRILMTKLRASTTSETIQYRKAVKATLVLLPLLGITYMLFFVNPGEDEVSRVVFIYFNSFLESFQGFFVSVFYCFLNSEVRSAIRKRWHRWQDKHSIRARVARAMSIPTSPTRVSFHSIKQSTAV
Experimental: (§5) CRHR1-containing human retinoblastoma Y79 cells, FIG. 3c. recombinant CRHR2, FIG. 3d. recombinant CRHR2 and, FIG. 3e. recombinant CRHR1. Cells incubated with the test peptide or vehicle were harvested at 16 h after treatment and heated to 95° C. for 5 mm to inactivate phosphodiesterase activity before cAMP measurement. […] Data are the mean SEM (N=4). SCP1-0.1, stresscopin 1 (0.1 nM); SCP1, stresscopin 1 (1 nM); SCP1(2-43), truncated stresscopin 1 with the first amino acid deleted; SCP1 (3-43), truncated stresscopin 1 with 2-amino-acid deletion; SCP1 (4-43), truncated stresscopin 1 with 3-amino-acid deletion; SCP1 (5-43), truncated stresscopin 1 with 4-amino-acid deletion; SCP1 (6-43), truncated stresscopin 1 with 5-amino-acid deletion; SCP1-NA-0.1, full-length stresscopin 1 devoid of amidation at the C-terminus (0.1 nM); SCP1-NA, full-length stresscopin 1 devoid of amidation at the C-terminus (1 nM); UCN, urocortin. […] Data are mean SEM (N=3).

[4] = target: T2, CRHR2-containing rat cardiac A7r5 cells (Rattus norvegicus, UniProt P47866); assay: cAMP production in CRHR2-containing rat cardiac A7r5 cells; assay type: cell-based; settings: harvested 16 h after treatment (FIG. 3a)
T2 construct: cells constitutively expressing CRH receptors; host or cells: A7r5 (rat)
T2 sequence (P47866 1-431 isoform P47866-2): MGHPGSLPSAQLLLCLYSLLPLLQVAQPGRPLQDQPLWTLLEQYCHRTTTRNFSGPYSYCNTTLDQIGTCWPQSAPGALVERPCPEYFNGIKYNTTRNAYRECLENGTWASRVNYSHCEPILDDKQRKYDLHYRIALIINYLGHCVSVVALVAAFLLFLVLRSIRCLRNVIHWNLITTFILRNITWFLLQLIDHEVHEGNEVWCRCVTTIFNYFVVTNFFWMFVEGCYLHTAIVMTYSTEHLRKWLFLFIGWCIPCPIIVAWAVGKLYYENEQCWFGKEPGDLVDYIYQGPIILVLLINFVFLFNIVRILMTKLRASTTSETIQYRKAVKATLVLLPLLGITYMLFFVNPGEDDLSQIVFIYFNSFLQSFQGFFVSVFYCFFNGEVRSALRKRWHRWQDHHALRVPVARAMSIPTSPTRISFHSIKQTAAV
Experimental: as §1, §2

[5] = tested on: cultured rat anterior pituitary cells; assay: ACTH release by cultured anterior pituitary cells in vitro; assay type: cell-based; settings: hormones 1 nM, 2 h at 37° C., FIG. 4a
Experimental: as §3
(§4) In Vivo and in Vitro assay of pituitary ACTH releasing activity. Anterior pituitaries were obtained from 6-week-old male Sprague-Dawley rats. […]

[6] = tested on: ACTH release in intact male rats; assay: ACTH secretion in vivo; parameters: species or system rat; settings: i.p. 2 nmoles/kg, 30 min, FIG. 4b
Experimental: as §3, §4

recombinant CRHR1 = target: T3, recombinant CRHR1 (Homo sapiens, UniProt P34998); assay: cAMP production by 293T cells transfected with recombinant CRHR1; assay type: cell-based; settings: 293T cells transiently transfected (FIG. 3e)
T3 construct: prolactin signal peptide (N); expressed in transfected cells; host or cells: human 293T cells, pcDNA3.1/Zeo vector
T3 sequence (P34998 24-415): T1 sequence (P34998 24-415)
Experimental: as §5

recombinant CRHR2, sequence (Q13324 35-411 limits assumed): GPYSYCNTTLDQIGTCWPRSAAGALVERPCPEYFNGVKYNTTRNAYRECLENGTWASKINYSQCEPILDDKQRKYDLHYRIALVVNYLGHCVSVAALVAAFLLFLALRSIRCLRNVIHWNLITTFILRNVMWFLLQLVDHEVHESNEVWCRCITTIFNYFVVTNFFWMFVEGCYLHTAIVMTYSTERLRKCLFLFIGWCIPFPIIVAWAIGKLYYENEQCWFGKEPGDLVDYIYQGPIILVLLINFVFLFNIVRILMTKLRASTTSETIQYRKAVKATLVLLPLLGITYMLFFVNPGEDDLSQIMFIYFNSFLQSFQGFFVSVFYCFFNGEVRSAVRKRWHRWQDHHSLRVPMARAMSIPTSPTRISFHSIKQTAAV

Substance | reduction in ability to stimulate cAMP production (recombinant CRHR2; compared to amidated stresscopin 1) [fold] | heat-induced edema formation ([1]; 100 nmoles/kg) | gastric emptying activity [2] | cAMP production mediated by recombinant CRHR2 (recombinant CRHR2) | ability to bind CRHR2 (displacement of labeled urocortin) (CRH R2) | Average body weight change/mouse (fasting mice; 2 nM) [grams] | Average food intake/mouse (fasting mice; 2 nM) [grams] | Average body weight change/mouse (fasting mice; 20 nM) [grams] | Average food intake/mouse (fasting mice; 20 nM) [grams] | cumulative food intake (fasting mice) | heat-induced edema formation ([1]; 20 nmoles/kg) | higher potency as compared to stresscopin 2 and the pufferfish peptide (recombinant CRHR2; activation of type-2 CRH receptors, cAMP) [fold] | cAMP production [3] | cAMP production [4] | ACTH release in vitro [5] | ACTH release in vivo [6] | cAMP production mediated by recombinant CRHR1 (recombinant CRHR1)
SCP1-NA: full-length stresscopin 1 devoid of amidation at the C-terminus (HPGSRIVLSLDVILGLLQILLEQARARAAREQATTNARILARV-OH) | > 50 |  |  |  |  |  |  |  |  |  |  |  |  |  |  |  | 
stresscopin 2: mature peptide of 40 amino acids, SEQ ID NO:6, derived from a 161 amino acid precursor protein (TKFTLSLDVPTNIMNLLFNIAKAKNLRAQAAANAHLMAQI; listed as Homo sapiens) |  | suppressed heat-induced edema formation | suppressed gastric emptying activity | potent agonists | bind | −0.19 ± 0.24 | 0.176 | 0.11 ± 0.1 | 0.152 | dose-dependently decreased food intake |  |  |  |  |  |  | 
stresscopin 1: mature 43 amino acid peptide, SEQ ID NO:3, derived from a 112 amino acid precursor; selective CRH-R2 ligand (HPGSRIVLSLDVILGLLQILLEQARARAAREQATTNARILARV; listed as Homo sapiens) |  |  | suppressed gastric emptying activity | potent agonists | bind |  |  | 0.31 ± 0.14 | 0.185 | dose-dependently decreased food intake | suppressed heat-induced edema formation | > 10 | ineffective | stimulated cAMP production |  |  | 
CRH: corticotropin releasing hormone, 41-amino acid peptide; purchased from Sigma Biochemicals [reference compound] |  |  | suppressed gastric emptying activity | stimulated cAMP production |  |  |  |  |  | dose-dependently decreased food intake | suppressed heat-induced edema formation |  |  | stimulated cAMP production | stimulated the release of ACTH | stimulated the release of ACTH | 
urocortin: 40 amino acid peptide, ligand for the CRH receptors; purchased from Sigma Biochemicals (DNPSLSIDLTFHLLRTLLELARTQSQRERAEQNRIIFDSV; ends and bridges not checked; UniProt P55089 83-122, looked up) [reference compound] |  |  | suppressed gastric emptying activity | stimulated cAMP production |  |  |  |  |  | dose-dependently decreased food intake | suppressed heat-induced edema formation |  | stimulated cAMP production | stimulated cAMP production | stimulated the release of ACTH | stimulated the release of ACTH | stimulated cAMP production

Reference: patent publication US7291341B2, “Stresscopins and their uses” (The Board of Trustees of the Leland Stanford Junior …, priority 2000, dated 2007)
